Literature values as cited in US20070065359A1, “Nanocells for diagnosis and treatment of diseases and disorders” (priority 2005, published 2007).

Target: TF antigen
Conditions: peptide displayed as a monomer; read-out: affinity for the TF antigen

In the case of “IVWHRWYAWSPASRI [TF antigen-binding peptide, I—V—W—H—R—W—Y-A-W—S—P-A-S—R—I]”, the Kd is listed as 600 nM.
